Experimental data as given in patent US11453679B2, “Methyl 2-methyl-5-oxo-1,4,5,7-tetradhydrofuro[3,4-b]pyridine-3-carboxylate compounds as Cav1.2 activators” (Novartis AG, priority 2020, dated 2022).

Key:
[1] = target: T1, human Cav1.2 (Homo sapiens, UniProt Q13936); test: Sophion QPatch whole-cell voltage clamp dose-response assay, Cav1.2-HEK293(AUX) cell line (barium currents); details: for QPatch Emax: maximal fold change of peak inward current
Protocol: 24 hours prior an electrophysiology experiment, doxycycline (1 μg/ml) was added to the growth medium (Table 1), and 25 μM of verapamil was co-applied to prevent calcium influx triggered cell death. Cell confluency should reach 70%-80% right before the experiment.
To harvest cells (from a T175 cm^2 flask as an example), growth media were removed completely, and the cells were rinsed with 10 mL of D-PBS. D-PBS was aspirated, and 10 mL of Detachin (Genlantis) was added and the plate was placed in a 37° C. incubator for 10 minutes. Detached cells were placed into a 15 mL conical tube and spun at 1000 rpm for 2 minutes. Supernatant was removed, and cells were re-suspended in QPatch complete media (Table 2) to desired cell density of 1.5-3 million cells per QPatch run. Each experimental run uses 1.5 mL of cells.
The cells suspension was taken to the Sophion QPatch platform that uses whole-cell voltage clamp to measure barium currents conducted through Cav1.2 on single-hole QPlates. […] A dose-response assay protocol was used to determine the maximal fold change of peak inward current (Emax) and potency (EC50) of each compound. The protocol had eight liquid periods. The first liquid period was to stabilize current amplitude, which was monitored using repetitive 200-ms voltage pulses stepping from −80 mV to 0 mV. The second liquid period was to determine baseline current amplitude in the presence of vehicle control, using a single 20-ms voltage pulse stepping from −80 mV to 0 mV. The third through eighth liquid periods were used to ascertain a 6-dose response to compound treatments, also using single 20-ms voltage pulses stepping from −80 mV to 0 mV. The EC50 was generated using the following equation Iconcentration=Ibase+(Ifull−Ibase)*c^n/(XC50^n+c^n), where c is the concentration and n is the Hill coefficient constant. Ifull is the maximal current achievable, and Ibase is 0.

[2] = target: T1, human Cav1.2; test: QPatch channel biophysics assay (current-voltage relationship, V1/2, tau of inactivation), Cav1.2-HEK293(AUX) cell line; type: cell-based; design: expressed in transfected cells; host or cells: Flp-In 293 T-Rex (HEK293), clone 2-19B, stably transfected with pCMV6-entry-CACNA1C and pcDNA5H/FRT-TO-CACNA2D2-FCS-P2A-CACNB2
Protocol: Clonal isolation was achieved under Neomycin selection.
Each experimental run uses 1.5 mL of cells.
The protocol had eight liquid periods. […] The protocol had four liquid periods.

[3] = Compound exposure in wild-type mice (cerebellum and blood, mass spectrometry); details: male, C57BL/6J, mouse, brain (cerebellum) and whole blood
Protocol: Compound administration and brain tissue collection. Wild-type C57BL/6J male mice were obtained from Jackson laboratories (Bar Harbor, Me.). The acute, single-dose effects of Cav1.2 activators of the present disclosure were evaluated in male eight-week old mice (n=6 mice per compound). Each compound was dissolved in 10% PEG300, 10% Solutol, 10% Cremophore EL, and 70% Phosphate Buffered Saline and administered intraperitoneal (i.p.) at a concentration of 1 mg/kg up to 30 mg/kg depending on the compound. Animals were euthanized one hour after compound administration via exsanguination under deep anesthesia. Blood was collected in EDTA tubes for downstream analysis of drug levels. Brains were rapidly removed from the skull, and the cerebral cortex and cerebellum were regionally dissected. Cerebellar samples were snap frozen in liquid nitrogen to assess compound exposure.
Quantification of compound exposure. Cerebellar tissue samples were homogenized in 4 mL of 20% acetonitrile and 80% Phosphate buffered saline for every 1 g of tissue (5× dilution). Tissue was homogenized using either of the following three methods: hand held probe system, TissueLyser system with 5 mm steel bead at a frequency of 30 s^−1 for 4 min, or OMNI Bead Ruptor Elite homogenizer for 30 seconds to 1 minute depending on tissue type. Tissue samples were added to a 96-well plate (12.5 μL sample) and processed for quantification by mass spectrometry.

[4] = system: cFos mRNA; test: cFos mRNA induction in cortex of wild-type mice (quantitative PCR); type: in vivo, C57BL/6J male mice; details: one hour after administration
Protocol: Compound administration and brain tissue collection.
Quantification of cFos mRNA induction. Tissue homogenization was performed using TissueLyser system for 96 well plates (Qiagen). First, frozen cortical samples were thawed, removed from RNAlater, and placed into TissueLyser tubes along with Buffer RLT containing 0.5% Reagent DX and one 5 mm TissueLyser metal bead. The TissueLyser tubes were loaded into a TissueLyser II tissue homogenizer for 3 rounds of homogenization, with each round lasting 5 minutes at 30 Hz bead-beating frequency. Total RNA was purified from the homogenate using RNeasy 96 Plus kit (Qiagen), RNA concentration and A260/A280 ratio were quantified via the Nanodrop (ThermoFisher), and all samples were normalized to 100 ng/μl concentration. RNA was reverse transcribed into cDNA using the Superscript III First-strand synthesis SuperMix Kit (ThermoFisher). For each sample, 6 μl of RNA (600 ng total) was mixed with 1 μL of Oligo dT and 1 μL of annealing buffer and heated to 65° C. for 5 minutes. Next, 10 μL of 2× First-Strand Reaction Mix and 2 μL of the Enzyme mix were added to achieve a total reaction volume of 20 μL. The samples were heated to 50° C. for 50 minutes then 85° C. for 5 minutes to complete cDNA synthesis.
Quantitative PCR was performed on the cDNA samples using Quantitect Multiplex RT-PCR kit (Qiagen) in a 384-well assay format. Each PCR well contained 2 μL of cDNA (60 ng total), 10 μL of RT-PCR mastermix, 1 μL of cFos FAM Taqman probe (Mm00487425_m1 (FAM) #4351368), 1 μL of GAPDH VIC Taqman probe (Mm99999915-g1 (VIC) #4448486), 0.2 μL of Multiplex RT mix and 5.8 μl of RNase-free water. On the ViiA7 Real-Time PCR system (ThermoFisher), the samples were heated to 95° C. for 15 minutes then cycled between 94° C. for 45 seconds and 60° C. for 45 seconds for 45 cycles. cFos Ct values were exported, normalized to GAPDH Ct values, and converted to relative fold change in expression using the delta-delta Ct relative quantification method. cFos fold changes between compound treatments and vehicle were analyzed by one-way ANOVA, followed by Tukey's post-hoc comparisons.

[5] = QPatch EC50, comparative examples, known CaV1.2 activators (Table 6)
[6] = QPatch EC50, 6-point dose response, 20-ms pulses from −80 mV to 0 mV, n = 1 unless marked (* n = 2, # n = 3)
[7] = shift of half-way channel activation voltage (V1/2)

T1 sequence (Q13936 whole entry): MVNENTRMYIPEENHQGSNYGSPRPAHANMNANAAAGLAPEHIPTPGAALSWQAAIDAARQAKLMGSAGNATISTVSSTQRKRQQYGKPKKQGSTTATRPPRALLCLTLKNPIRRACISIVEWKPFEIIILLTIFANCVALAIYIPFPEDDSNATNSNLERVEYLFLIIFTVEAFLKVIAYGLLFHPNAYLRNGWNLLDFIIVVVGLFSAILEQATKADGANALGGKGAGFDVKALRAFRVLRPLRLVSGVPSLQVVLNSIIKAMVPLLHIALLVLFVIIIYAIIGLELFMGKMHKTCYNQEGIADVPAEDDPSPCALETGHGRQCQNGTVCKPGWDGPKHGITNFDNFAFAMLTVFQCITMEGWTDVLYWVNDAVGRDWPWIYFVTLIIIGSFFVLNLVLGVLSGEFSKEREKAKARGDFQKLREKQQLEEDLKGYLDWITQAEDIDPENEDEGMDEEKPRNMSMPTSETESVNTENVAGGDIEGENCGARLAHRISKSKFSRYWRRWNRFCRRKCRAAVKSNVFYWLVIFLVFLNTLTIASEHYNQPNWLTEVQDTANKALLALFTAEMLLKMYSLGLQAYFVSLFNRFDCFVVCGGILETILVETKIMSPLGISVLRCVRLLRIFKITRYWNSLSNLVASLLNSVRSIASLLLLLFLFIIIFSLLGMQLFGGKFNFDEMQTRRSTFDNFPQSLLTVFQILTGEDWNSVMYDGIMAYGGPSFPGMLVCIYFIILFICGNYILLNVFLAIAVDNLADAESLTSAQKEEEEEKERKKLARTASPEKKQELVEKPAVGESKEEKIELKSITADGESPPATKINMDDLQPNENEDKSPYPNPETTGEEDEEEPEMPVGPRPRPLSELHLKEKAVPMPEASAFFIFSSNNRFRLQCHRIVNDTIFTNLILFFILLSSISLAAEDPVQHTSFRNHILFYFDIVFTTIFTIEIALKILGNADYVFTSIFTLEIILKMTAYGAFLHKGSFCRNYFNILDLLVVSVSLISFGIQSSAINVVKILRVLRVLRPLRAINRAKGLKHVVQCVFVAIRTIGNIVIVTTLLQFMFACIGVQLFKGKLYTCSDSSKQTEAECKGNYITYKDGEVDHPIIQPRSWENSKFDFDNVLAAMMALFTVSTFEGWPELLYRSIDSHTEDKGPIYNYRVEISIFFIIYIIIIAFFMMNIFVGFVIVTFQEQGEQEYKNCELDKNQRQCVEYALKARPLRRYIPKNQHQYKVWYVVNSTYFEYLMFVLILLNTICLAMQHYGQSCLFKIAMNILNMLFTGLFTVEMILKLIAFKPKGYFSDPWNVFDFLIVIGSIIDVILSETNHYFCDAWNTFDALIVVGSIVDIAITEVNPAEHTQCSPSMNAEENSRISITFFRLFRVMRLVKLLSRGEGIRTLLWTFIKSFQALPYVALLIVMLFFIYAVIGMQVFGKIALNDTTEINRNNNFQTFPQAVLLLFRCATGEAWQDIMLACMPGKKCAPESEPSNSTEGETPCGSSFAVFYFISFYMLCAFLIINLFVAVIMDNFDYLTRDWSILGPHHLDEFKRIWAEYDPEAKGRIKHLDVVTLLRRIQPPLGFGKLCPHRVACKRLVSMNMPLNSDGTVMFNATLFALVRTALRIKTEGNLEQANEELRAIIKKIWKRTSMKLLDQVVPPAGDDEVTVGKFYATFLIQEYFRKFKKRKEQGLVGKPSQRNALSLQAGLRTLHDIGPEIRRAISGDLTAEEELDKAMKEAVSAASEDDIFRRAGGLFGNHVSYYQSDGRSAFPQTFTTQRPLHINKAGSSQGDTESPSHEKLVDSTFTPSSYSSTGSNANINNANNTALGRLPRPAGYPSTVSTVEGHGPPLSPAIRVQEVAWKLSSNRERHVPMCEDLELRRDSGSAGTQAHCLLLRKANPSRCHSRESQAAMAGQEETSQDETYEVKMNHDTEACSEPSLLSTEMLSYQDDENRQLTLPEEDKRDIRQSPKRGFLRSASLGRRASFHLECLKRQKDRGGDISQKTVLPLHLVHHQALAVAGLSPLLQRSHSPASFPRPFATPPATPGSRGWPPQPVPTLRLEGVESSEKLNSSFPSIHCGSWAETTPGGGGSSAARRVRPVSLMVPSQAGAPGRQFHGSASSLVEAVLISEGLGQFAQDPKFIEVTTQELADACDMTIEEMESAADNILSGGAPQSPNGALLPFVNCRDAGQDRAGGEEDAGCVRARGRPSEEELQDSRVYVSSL
T1 sequence (Q9NY47 19-1001 partner limits assumed): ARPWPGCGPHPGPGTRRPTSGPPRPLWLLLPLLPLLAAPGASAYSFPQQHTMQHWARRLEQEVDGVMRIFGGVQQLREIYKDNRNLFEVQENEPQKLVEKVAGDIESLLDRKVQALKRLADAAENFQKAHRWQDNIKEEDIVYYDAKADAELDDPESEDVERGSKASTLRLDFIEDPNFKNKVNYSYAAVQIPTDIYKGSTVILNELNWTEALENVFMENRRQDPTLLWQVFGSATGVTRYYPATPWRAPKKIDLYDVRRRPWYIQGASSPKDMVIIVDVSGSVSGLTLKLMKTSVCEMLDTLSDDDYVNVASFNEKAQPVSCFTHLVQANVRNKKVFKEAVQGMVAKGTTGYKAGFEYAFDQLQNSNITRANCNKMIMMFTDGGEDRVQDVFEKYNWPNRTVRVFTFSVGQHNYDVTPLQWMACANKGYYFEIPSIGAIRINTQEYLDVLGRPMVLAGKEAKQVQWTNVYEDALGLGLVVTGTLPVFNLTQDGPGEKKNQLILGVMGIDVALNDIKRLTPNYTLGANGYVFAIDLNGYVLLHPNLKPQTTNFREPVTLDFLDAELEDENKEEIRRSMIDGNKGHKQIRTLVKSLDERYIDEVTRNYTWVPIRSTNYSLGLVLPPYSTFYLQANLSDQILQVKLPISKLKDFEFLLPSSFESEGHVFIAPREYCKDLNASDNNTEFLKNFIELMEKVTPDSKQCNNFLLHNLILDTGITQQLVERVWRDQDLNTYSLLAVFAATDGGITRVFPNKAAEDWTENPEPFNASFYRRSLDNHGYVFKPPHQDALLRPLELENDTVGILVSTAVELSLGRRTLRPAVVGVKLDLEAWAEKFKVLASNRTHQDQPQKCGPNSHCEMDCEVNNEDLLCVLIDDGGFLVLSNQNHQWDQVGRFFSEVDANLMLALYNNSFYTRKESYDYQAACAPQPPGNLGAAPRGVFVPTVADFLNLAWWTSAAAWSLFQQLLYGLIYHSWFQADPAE
T1 sequence (Q9NY47 1002-1150 partner limits assumed): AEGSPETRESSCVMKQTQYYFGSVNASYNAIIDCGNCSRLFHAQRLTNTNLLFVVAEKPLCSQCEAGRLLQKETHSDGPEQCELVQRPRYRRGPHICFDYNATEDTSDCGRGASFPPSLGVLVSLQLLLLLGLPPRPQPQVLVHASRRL
T1 sequence (Q08289 whole entry partner): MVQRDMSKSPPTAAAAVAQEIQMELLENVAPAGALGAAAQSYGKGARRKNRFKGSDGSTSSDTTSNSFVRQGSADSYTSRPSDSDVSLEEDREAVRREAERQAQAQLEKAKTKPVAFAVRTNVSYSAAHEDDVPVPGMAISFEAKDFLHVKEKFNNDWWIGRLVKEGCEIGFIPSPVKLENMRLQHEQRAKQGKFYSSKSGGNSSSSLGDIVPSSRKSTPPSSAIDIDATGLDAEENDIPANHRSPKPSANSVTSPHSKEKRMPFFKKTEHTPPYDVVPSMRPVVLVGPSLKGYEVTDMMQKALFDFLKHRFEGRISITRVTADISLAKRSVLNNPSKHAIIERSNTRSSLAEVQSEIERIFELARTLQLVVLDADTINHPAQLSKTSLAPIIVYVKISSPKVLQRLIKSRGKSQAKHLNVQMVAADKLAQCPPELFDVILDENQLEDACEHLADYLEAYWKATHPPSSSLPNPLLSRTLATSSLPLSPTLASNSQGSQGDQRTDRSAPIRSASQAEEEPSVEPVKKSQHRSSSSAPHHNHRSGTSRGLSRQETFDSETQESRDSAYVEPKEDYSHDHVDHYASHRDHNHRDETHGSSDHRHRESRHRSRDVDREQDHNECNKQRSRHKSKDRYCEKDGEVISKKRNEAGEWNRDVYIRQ

| SMILES | EC50 [1, 5] | QPatch Emax ([1]; comparative examples (Table 6)) | Biophysics voltage shift ([2]; comparative examples (Table 6)) | Kp at 1 h ([3]; ip) | EC50 [1, 6] | QPatch Emax [1] | % ↑cFOS mRNA cortex (3 mg/kg ip) [4] | % ↑cFOS mRNA cortex (10 mg/kg ip) [4] | Biophysics voltage shift [2, 7] | Kp at 1 h ([3]; intraperitoneal) |
| --- | --- | --- | --- | --- | --- | --- | --- | --- | --- | --- |
| CCOC(=O)C1=C(C)NC2=C(C(=O)OC2)C1c1ccccc1C(F)(F)F (single isomer, unassigned) [reference compound] | 930 nM | 1.9 | – | – | – | – | – | – | – | – |
| COC(=O)C1=C(C)NC2=C(C(=O)OC2)C1c1ccccc1OC(F)F (single isomer, unassigned) [reference compound] | 510 nM | 1.7 | −7.1 mV | – | – | – | – | – | – | – |
| CCc1c(F)cccc1[C@H]1C(C(=O)OC)=C(C)NC2=C1C(=O)OC2 (single isomer, unassigned) [Example 13] | – | – | – | 1 | 220 nM | 1.5 | 165% | 281% | −4.8 mV | – |
| COC(=O)C1=C(C)NC2=C(C(=O)OC2)[C@H]1c1cccc(F)c1[C@H](C)F (single isomer, unassigned) [Example 10, Methyl (S)-4-(3-fluoro-2-((S or R)-1-fluoroethyl)phenyl)-2-methyl-5-oxo-1,4,5,7-tetrahydrofuro[3,4-b]pyridine-3-carboxylate] | – | – | – | 0.9 | 40 nM | 2.2 | 204% | – | – | – |
| COC(=O)C1=C(C)NC2=C(C(=O)OC2)[C@H]1c1cc(F)cc(F)c1C(C)C (single isomer, unassigned) [Example 18] | – | – | – | – | 102 nM | 2.2 | – | – | −6.5 mV | – |
| COC(=O)C1=C(C)NC2=C(C(=O)OC2)[C@H]1c1cccc(F)c1C1CCC1 (single isomer, unassigned) [Example 3] | – | – | – | – | 80 nM | 1.8 | – | – | −6.6 mV | – |
| COC(=O)C1=C(C)NC2=C(C(=O)OC2)[C@H]1c1cc(F)cc(F)c1[C@H]1CC1(F)F (single isomer, unassigned) [Example 5, Methyl (S)-4-(2-((R or S)-2,2-difluorocyclopropyl)-3,5-difluorophenyl)-2-methyl-5-oxo-1,4,5,7-tetrahydrofuro[3,4-b]pyridine-3-carboxylate] | – | – | – | – | 53 nM | 2.5 | – | – | −7.2 mV | – |
| CCc1c(F)cc(F)cc1[C@H]1C(C(=O)OC)=C(C)NC2=C1C(=O)OC2 (single isomer, unassigned) [Example 12] | – | – | – | 0.8 | 110 nM | 1.4 | 128% | – | −7.4 mV | – |
| C=C(c1c(F)cc(F)cc1[C@H]1C(C(=O)OC)=C(C)NC2=C1C(=O)OC2)C(F)(F)F (single isomer, unassigned) [Example 19] | – | – | – | 2.9 | 12 nM | 1.7 | 138% | – | −1.8 mV | – |
| COC(=O)C1=C(C)NC2=C(C(=O)OC2)[C@H]1c1cccc(F)c1[C@@H](F)CF (single isomer, unassigned) [Example 11, Methyl (S)-4-(2-((R or S)-1,2-difluoroethyl)-3-fluorophenyl)-2-methyl-5-oxo-1,4,5,7-tetrahydrofuro[3,4-b]pyridine-3-carboxylate] | – | – | – | – | 40 nM | 1.4 | – | – | −6.8 mV | – |
| COC(=O)C1=C(C)NC2=C(C(=O)OC2)C1c1ccccc1C(F)(F)F (single isomer, unassigned) [reference compound] | 360 nM | 1.4 | −4.3 mV | – | – | – | – | – | – | – |
| CCOC(=O)C1=C(C)NC2=C(C(=O)OC2)[C@H]1c1ccccc1OC(F)F (single isomer, unassigned) [reference compound] | 280 nM | 2.2 | −6.7 mV | – | – | – | – | – | – | 0.23 |
| COC(=O)C1=C(C)NC2=C(C(=O)OC2)[C@H]1c1cccc(F)c1C1CC1 (single isomer, unassigned) [Example 4] | – | – | – | 1.2 | 110 nM | 2.1 | 247% | 398% | −4.5 mV | – |
| COC(=O)C1=C(C)NC2=C(C(=O)OC2)[C@H]1c1cc(F)cc(F)c1[C@H]1CC1(F)F (single isomer, unassigned) [Example 6, Methyl (S)-4-(2-((R or S)-2,2-difluorocyclopropyl)-3,5-difluorophenyl)-2-methyl-5-oxo-1,4,5,7-tetrahydrofuro[3,4-b]pyridine-3-carboxylate] | – | – | – | – | 81 nM | 2.6 | – | – | −4.8 mV | – |
| COC(=O)C1=C(C)NC2=C(C(=O)OC2)[C@H]1c1cc(F)cc(F)c1C1CC1 (single isomer, unassigned) [Example 14] | – | – | – | 1.7 | 65 nM | 1.8 | 228% | 364% | −1.9 mV | – |
| CCOC(=O)C1=C(C)NC2=C(C(=O)OC2)[C@H]1c1ccccc1OCc1ccccc1 (single isomer, unassigned) [reference compound] | 450 nM | 4.3 | −15.4 mV | – | – | – | – | – | – | – |
| COC(=O)C1=C(C)NC2=C(C(=O)OC2)[C@H]1c1cccc(F)c1CC(F)(F)F (single isomer, unassigned) [Example 9] | – | – | – | 2.3 | 130 nM | 1.5 | 112% | – | −6.6 mV | – |
| C=C(c1c(F)cccc1[C@H]1C(C(=O)OC)=C(C)NC2=C1C(=O)OC2)C(F)(F)F [Example 16, (S)-methyl 4-(3-fluoro-2-(3,3,3-trifluoroprop-1-en-2-yl)phenyl)-2-methyl-5-oxo-1,4,5,7-tetrahydrofuro[3,4-b]pyridine-3-carboxylate] | – | – | – | 0.6 | 4 nM | 1.5 | 121% | – | −3.3 mV | – |
| COC(=O)C1=C(C)NC2=C(C(=O)OC2)[C@H]1c1cccc(F)c1C1CC(F)C1 (single isomer, unassigned) [Example 20] | – | – | – | – | 86 nM | 1.6 | – | – | −6.1 mV | – |
| COC(=O)C1=C(C)NC2=C(C(=O)OC2)C1c1ccccc1C (single isomer, unassigned) [reference compound] | 2240 nM | 1.4 | – | – | – | – | – | – | – | – |
| COC(=O)C1=C(C)NC(C)=C([N+](=O)[O-])[C@H]1c1ccccc1C(F)(F)F (single isomer, unassigned) [reference compound] | – | 3.9 | – | – | – | – | – | – | – | – |
| COC(=O)C1=C(C)NC2=C(C(=O)OC2)[C@H]1c1cccc(F)c1C(C)(C)F (single isomer, unassigned) [Example 8] | – | – | – | – | 218 nM | 1.6 | – | – | – | – |
| COC(=O)C1=C(C)NC2=C(C(=O)OC2)[C@H]1c1cccc(F)c1CC(F)F [Example 17, (S)-methyl 4-(2-(2,2-difluoroethyl)-3-fluorophenyl)-2-methyl-5-oxo-1,4,5,7-tetrahydrofuro[3,4-b]pyridine-3-carboxylate] | – | – | – | – | 271 nM | 1.8 | – | – | −6.6 mV | – |
